Measured values reported in US20240319171A1, “METHOD FOR SCREENING SUBSTANCE, SYSTEM FOR SCREENING SUBSTANCE, METHOD FOR PRODUCING A CLUMP FROM STEM CELLS, AND METHOD FOR PRODUCING DIFFERENTIATED CELLS” (priority 2023, published 2024).

What was measured:
[1] = system: human subject 1-derived induced fibroblasts; assay type: cell-based
[2] = system: human subject 1-derived induced fibroblasts; test: collagen production by induced fibroblasts after adding substance (subject 1); assay type: cell-based; conditions: FIG. 14A; for amount of the collagen produced: human subject 1-derived induced fibroblasts, compared with the control in which the addition was not carried out
From the text: (§1) Skin cells were collected from a human subject 1 and a human subject 2, and iPS cells were induced from the skin cells from the respective subjects. Further, in the same manner as in Example 2, fibroblasts were induced from the human subject 1-derived iPS cells, and fibroblasts were induced from the human subject 2-derived iPS cells.

[3] = system: human subject 2-derived induced fibroblasts; test: collagen production by induced fibroblasts after adding substance (subject 2); assay type: cell-based; conditions: compared with the control in which the addition was not carried out, FIG. 14B
From the text: as §1

[4] = system: human subject 2-derived induced fibroblasts; conditions: among phenoxyethanol, paraben, benzalkonium chloride, sodium salicylate, FIG. 15B
Method: In addition, phenoxyethanol, paraben, benzalkonium chloride, and sodium salicylate, which are respectively antiseptic agents, were prepared.

SMILES	survival rate of cells [1]	amount of the collagen produced [2]	amount of the collagen produced [3]	survival rate of cells [4]	effectiveness in increasing the production amount of collagen, compared among added substances ([2]; induced fibroblasts derived from human subject 1, among vitamin C, retinol, iPS cell culture medium supernatant)
OCCOc1ccccc1 [phenoxyethanol]	highest	–	–	–	–
CC1=C(/C=C/C(C)=C/C=C/C(C)=C/CO)C(C)(C)CCC1 [retinol]	–	increased	increased	–	–
O=C([O-])c1ccccc1O.[Na+] [sodium salicylate]	–	–	–	highest	–
O=C1O[C@H]([C@@H](O)CO)C(O)=C1O [vitamin C]	–	increased	increased	–	most effective
